The results in this text go back to article PMC10733197, “Utilization of Rosuvastatin and Endogenous Biomarkers in Evaluating the Impact of Ritlecitinib on BCRP, OATP1B1, and OAT3 Transporter Activity” (Pharmaceutical Research, 2023).

The target in one data set is T1, OATP1B1 (Homo sapiens, UniProt Q9Y6L6).
T1 construct: expressed in transfected cells; host or cells: HEK293
T1 sequence (Q9Y6L6 1-691): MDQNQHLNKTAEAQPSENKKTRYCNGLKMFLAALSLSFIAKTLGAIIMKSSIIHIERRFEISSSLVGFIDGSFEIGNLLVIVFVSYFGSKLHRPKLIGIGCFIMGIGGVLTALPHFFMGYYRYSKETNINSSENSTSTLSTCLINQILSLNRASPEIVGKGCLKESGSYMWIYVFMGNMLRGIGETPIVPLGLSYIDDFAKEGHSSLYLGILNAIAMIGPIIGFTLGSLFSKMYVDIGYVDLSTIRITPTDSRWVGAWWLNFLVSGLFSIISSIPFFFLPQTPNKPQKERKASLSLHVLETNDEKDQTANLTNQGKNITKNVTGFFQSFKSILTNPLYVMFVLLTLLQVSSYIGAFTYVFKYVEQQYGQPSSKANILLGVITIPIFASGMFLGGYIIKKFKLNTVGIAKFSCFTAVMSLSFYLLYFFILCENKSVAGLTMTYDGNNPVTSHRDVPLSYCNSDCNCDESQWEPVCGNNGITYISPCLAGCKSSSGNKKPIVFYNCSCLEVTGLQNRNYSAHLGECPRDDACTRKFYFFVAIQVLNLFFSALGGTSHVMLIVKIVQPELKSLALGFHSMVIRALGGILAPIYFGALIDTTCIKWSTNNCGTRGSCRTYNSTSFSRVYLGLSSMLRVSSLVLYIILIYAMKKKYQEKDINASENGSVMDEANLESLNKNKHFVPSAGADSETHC
The data set is described as follows: OATP1B1-mediated CP-I uptake inhibition in transfected HEK293 cells. Type of data set: cell-based. On the procedure:
(§1) Sources of human embryonic kidney (HEK) 293 cells expressing individual transfected human solute carriers (SLC), test substrates, and cell culture reagents, as well as detailed cell culture methods, incubations, and sample processing, have been described previously. SLC included hepatic OATP1B1, OATP1B3, and renal OAT1 and OAT3. […] Likewise, the uptake of non-labeled rosuvastatin (Biosynth, San Diego, CA) at 0.3—0.5 µM was determined for OATP1B1 and OATP1B3 at 1—3 min, and CP-I (Frontier Specialty Chemicals, Logan, UT) at 0.1 µM was determined for OATP1B1 and OATP1B3 at 10 min [14].
(§2) In all cases, ritlecitinib (0.018 to 1000 µM) and metabolite M2 (0.018 to 300 µM) was tested over a wide range of final concentrations dissolved in dimethyl sulfoxide (the final concentration of dimethyl sulfoxide in the assays was 1% v/v). For each transporter, the IC50 was estimated using a four-parameter logistic equation (Eq. 1) using GraphPad Prism software (GraphPad Software Inc, La Jolla, CA).1 %UptakeActivity=Bottom+(Top-Bottom)/1+10^(LogIC50-inhib*HillSlope)
Uptake of CP-I was determined by analysis of the in vitro assay samples using an optimized LC-high resolution mass spectrometry (HRMS) method. In brief, dried samples were reconstituted in 150 µL of 0.1% formic acid and analyzed by LC-HRMS. Analyte separation and detection was achieved using a Shimadzu Nexera high performance LC system (Shimazdu Scientific, MA, USA) coupled to a Sciex API-6600 Q-TOF (time of flight) mass spectrometer with a Turbo IonDrive source (Sciex Corporation, MA, USA). Chromatographic separation was achieved using a Waters Acquity BEH C18 1.7µ 2.1 mm x 100 mm column and a binary mobile phase system consisting of 0.1% v/v formic acid and 0.1% v/v formic acid in acetonitrile, as mobile phase A and B, respectively. The column temperature was held at 60 °C and the flow rate was 0.55 mL/minute. The gradient program had initial conditions of 5% B which was held for 0.9 min, followed by a linear ramp to 95% B over 5.1 min, a hold for 1.0 min, and a return to starting conditions over 0.1 min with re-equilibration for 0.9 min (total run time of 8.0 min). Analyte detection was achieved using an API-6600 Q T-OF mass spectrometer with electrospray ionization (ESI). The mass spectrometer was operated in both TOF-MS and TOF-MS/MS mode with data collected over a 60 to 670 dalton mass range. TOF-MS/MS data were collected in the high-resolution mode. Quantification of CP-I levels was assessed using targeted TOF-MS/MS data with accumulation times of 150 and 35 ms, respectively, for CP-I and the internal standard (ISTD) verapamil. […]

Another data set has as its target T2, OATP1B3 (Homo sapiens, UniProt Q9NPD5).
T2 construct: expressed in transfected cells; host or cells: HEK293
T2 sequence (Q9NPD5 1-702): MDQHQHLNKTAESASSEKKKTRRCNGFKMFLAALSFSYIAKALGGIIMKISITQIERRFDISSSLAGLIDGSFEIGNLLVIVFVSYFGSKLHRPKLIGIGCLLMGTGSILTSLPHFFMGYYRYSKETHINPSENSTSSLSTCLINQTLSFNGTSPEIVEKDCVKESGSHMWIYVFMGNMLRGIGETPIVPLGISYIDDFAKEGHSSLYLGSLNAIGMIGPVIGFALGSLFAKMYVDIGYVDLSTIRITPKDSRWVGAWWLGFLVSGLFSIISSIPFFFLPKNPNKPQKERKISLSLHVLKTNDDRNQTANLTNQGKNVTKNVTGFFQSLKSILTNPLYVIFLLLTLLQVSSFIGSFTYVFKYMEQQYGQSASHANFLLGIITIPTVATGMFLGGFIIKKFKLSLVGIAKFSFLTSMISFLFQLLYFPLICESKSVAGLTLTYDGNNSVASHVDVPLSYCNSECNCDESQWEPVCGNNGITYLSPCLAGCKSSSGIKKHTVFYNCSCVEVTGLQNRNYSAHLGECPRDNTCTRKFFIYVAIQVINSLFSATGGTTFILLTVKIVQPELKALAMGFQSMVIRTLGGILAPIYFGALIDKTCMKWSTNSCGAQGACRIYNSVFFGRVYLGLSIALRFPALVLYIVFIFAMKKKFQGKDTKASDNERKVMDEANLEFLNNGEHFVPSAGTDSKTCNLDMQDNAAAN
In words: OATP1B3-mediated CP-I uptake inhibition in transfected HEK293 cells. Type of data set: cell-based. Here is the method:
as §1, §2
Uptake of CP-I was determined by analysis of the in vitro assay samples using an optimized LC-high resolution mass spectrometry (HRMS) method. In brief, dried samples were reconstituted in 150 µL of 0.1% formic acid and analyzed by LC-HRMS. Analyte separation and detection was achieved using a Shimadzu Nexera high performance LC system (Shimazdu Scientific, MA, USA) coupled to a Sciex API-6600 Q-TOF (time of flight) mass spectrometer with a Turbo IonDrive source (Sciex Corporation, MA, USA). Chromatographic separation was achieved using a Waters Acquity BEH C18 1.7µ 2.1 mm x 100 mm column and a binary mobile phase system consisting of 0.1% v/v formic acid and 0.1% v/v formic acid in acetonitrile, as mobile phase A and B, respectively. The column temperature was held at 60 °C and the flow rate was 0.55 mL/minute. The gradient program had initial conditions of 5% B which was held for 0.9 min, followed by a linear ramp to 95% B over 5.1 min, a hold for 1.0 min, and a return to starting conditions over 0.1 min with re-equilibration for 0.9 min (total run time of 8.0 min). Analyte detection was achieved using an API-6600 Q T-OF mass spectrometer with electrospray ionization (ESI). The mass spectrometer was operated in both TOF-MS and TOF-MS/MS mode with data collected over a 60 to 670 dalton mass range. TOF-MS/MS data were collected in the high-resolution mode. Quantification of CP-I levels was assessed using targeted TOF-MS/MS data with accumulation times of 150 and 35 ms, respectively, for CP-I and the internal standard (ISTD) verapamil. Data were processed using the MultiQuant software package using the targeted mass-to-charge transitions of 328.1 to 268.1201 ± 0.02 daltons and 238.1094 ± 0.02 daltons (summed ions) for CP-I, and 455.2 to 165.0907 ± 0.02 daltons for the ISTD (verapamil), to generate analyte/ISTD area ratios.

In the case of `C=CC(=O)N1C[C@H](Nc2ncnc3[nH]ccc23)CC[C@@H]1C` [Ritlecitinib, ritlecitinib], the “Triggers Drug Interaction Cutoff” value at OATP1B1 (OATP1B1 (CP-I)) is “Yes”; at OATP1B3 (OATP1B3 (CP-I)) it was “No”. For the same compound, the R-value is recorded as 1.12 on OATP1B1 (OATP1B1 (CP-I), 1 + (Imax,inlet,u/IC50), cutoff 1.1 (FDA), 1.04 (EMA)) and under 1.03 on OATP1B3 (OATP1B3 (CP-I), 1 + (Imax,inlet,u/IC50), cutoff 1.1 (FDA), 1.04 (EMA)). For the same compound, the “Fraction Inhibited” value is recorded as 0.1 on OATP1B1 (OATP1B1 (CP-I), Imax,inlet,u/(Imax,inlet,u + IC50) (Eq. 1)) and under 0.03 on OATP1B3 (OATP1B3 (CP-I), Imax,inlet,u/(Imax,inlet,u + IC50) (Eq. 1)). In addition, the 50% inhibitory concentration (IC50) against OATP1B1 (hepatic OATP1B1, CP-I 0.1 µM as substrate, 10 min, HEK293, mean ± SD, n = 3) was 257 ± 8 µM; against OATP1B3 (hepatic OATP1B3, CP-I 0.1 µM as substrate, 10 min, HEK293), over 1000 µM. In addition, the inhibition at 10 min, 1000 µM at OATP1B3 (human, HEK293 cells transfected with OATP1B3, probe coproporphyrin I (CP-I), 0.1 µM, OATP1B3 (CP-I), 1000 µM, read-out: % inhibition at the highest concentration tested) stood at 23%.
